# Assay results published in patent US12329788B2, “Synbiotic compositions” (Evonik Operations GmbH, priority 2018, dated 2025).
# Where a SMILES comes first, the peptide text is derived from it.
# How the values were obtained:
# colonic human microbiota = experiment: i-screen intestinal screening model, microbiota composition by 16S rRNA V4 sequencing (whole community, Bacillus persistence); type: cell-based; conditions: for other genera relative abundance: 24 h SIEM, amino acids 3.5 mM; for other genera relative abundance / effect on the microbial community: dipeptides 7 mM; for synergy on microbial community composition (higher increase of Clostridium XIVa, higher decrease of Clostridium XI than single additions): 24 h; for effect on the microbial community: Example 8, amino acids 3.5 mM, 0% O2
# Description: To determine the effect of the probiotic strains Bacillus subtilis DSM 32315, Bacillus subtilis DSM 32540, Bacillus licheniformis DSM 32314 and Bacillus amyloliquefaciens CECT 5940 on adult colonic microbiota, an intestinal screening model was used (i-screen, TNO, the Netherlands). Therefore the i-screen model was inoculated with standard human adult fecal microbiota material, which consisted of pooled fecal donations from 6 healthy adult volunteers (Caucasian, European lifestyle and nutrition). The fecal material was mixed and grown in a fed-batch fermenter for 40 hours to create a standardized microbiota as described previously. These standard adult gut microbiota sets were stored at -80° C. in 12% glycerol. The intestinal microbiota was cultured in vitro in modified standard ileal efflux medium (SIEM), the composition of which was described by and modified as follows: 0.047 g/l pectin, 0.047 g/l xylan, 0.047 g/l arabinogalactan, 0.047 g/l amylopectin, 0.392 g/l starch, 24.0 g/l casein, 24.0 Bacto pepton, 0.4 ox-bile and 0.2 g/l cysteine. All components were supplied by Trititium Microbiology (Veldhoven, The Netherlands). The pH of the medium was adjusted to 5.8. For the i-screen fermentations, the precultured standardized fecal inoculum was diluted 50 times in 1350 μl modified SIEM. All experiments have been carried out in triplicates. The strains Bacillus subtilis (DSM 32315), Bacillus subtilis DSM 32540, Bacillus licheniformis DSM 32314 and Bacillus amyloliquefaciens CECT 5940 were precultured separately in 50 ml LBKelly medium, for about 16 h. Incubation was done in shaking flasks at 37° C. under aerobic conditions. After incubation, bacterial density was determined by optical density measurement at 600 nm. A final stock solution of 1×10^10 cells/ml was prepared in 1 ml buffer solution (0.1 mM MES pH 6). […] DNA extraction for the sequencing of 16S rRNA coding genes was performed as described by […] et al. (2013) with some minor modifications. Approximately 100 μl of the culture materials were added to the wells of a 96 well plate containing per well 300 μl of lysis buffer (Mag Mini DNA Isolation Kit, LGC ltd, UK), 500 μl zirconium beads (0.1 mm; BioSpec products, Bartlesville, OK, USA) and 500 μl of phenol saturated with Tris-HCI (pH 8.0; Carl Roth GMBH, Germany). The 96 well plate was placed in a Mini-BeadBeater-96 (BioSpec products, Bartlesville, Okla, USA) for 2 min at 2100 oscillations/min. DNA was subsequently purified using the Agowa Mag Mini DNA Isolation Kit according to the manufacturer recommendations. Extracted DNA was eluted in a final volume of 60 μl buffer. The microbiota composition was analyzed by 16S rRNA gene amplicon sequencing of the V4 Hypervariable Region. This was Achieved Through a Series of Steps: The amount of bacterial DNA in the i-screen DNA samples was determined by quantitative polymerase chain reaction (qPCR) using primers specific for the bacterial 16S rRNA gene: Subsequently, PCR amplicons of the V4 hypervariable region of the 16S rRNA gene were generated for the individual samples by amplification of […] of DNA as described by (2013), using […]/[…] primers. Primers included Illumina adapters and a unique 8-nt sample index sequence key. A mock control was included for technical quality control. […] The Library was quantified using the Quant-iTTM PicoGreen® dsDNA Assay Kit (Thermo Fisher Scientific). Paired-end sequencing of amplicons was conducted on the Illumina MiSeq platform (Illumina, Eindhoven, The Netherlands). The sequence data was processed with Mothur v.1.36.1 [26] in line with the mothur MiSeq SOP [24]. Before merging the read pairs, low quality regions were trimmed using Btrim with a sliding window size of 5 nt and average quality score of 25. After merging, the sequences were filtered by length while no ambiguous bases were allowed. […] Chimeric sequences were identified per sample using […] [28] in de novo mode and removed. […]
# human gut microbiota = experiment: lactate and short-chain fatty acid production in i-screen with human gut microbiota; type: cell-based; conditions: 24 h, amino acids 3.5 mM, dipeptides 7 mM
# Description: To determine the effect of the probiotic strains Bacillus subtilis DSM 32315, Bacillus subtilis DSM 32540, Bacillus licheniformis DSM 32314 and Bacillus amyloliquefaciens CECT 5940 on adult colonic microbiota, an intestinal screening model was used (i-screen, TNO, the Netherlands). Therefore the i-screen model was inoculated with standard human adult fecal microbiota material, which consisted of pooled fecal donations from 6 healthy adult volunteers (Caucasian, European lifestyle and nutrition). The fecal material was mixed and grown in a fed-batch fermenter for 40 hours to create a standardized microbiota as described previously. These standard adult gut microbiota sets were stored at −80° C. in 12% glycerol.
# The intestinal microbiota was cultured in vitro in modified standard ileal efflux medium (SIEM), the composition of which was described by and modified as follows: 0.047 g/l pectin, 0.047 g/l xylan, 0.047 g/l arabinogalactan, 0.047 g/l amylopectin, 0.392 g/l starch, 24.0 g/l casein, 24.0 Bacto pepton, 0.4 ox-bile and 0.2 g/l cysteine. All components were supplied by Trititium Microbiology (Veldhoven, The Netherlands). The pH of the medium was adjusted to 5.8.
# For the i-screen fermentations, the precultured standardized fecal inoculum was diluted 50 times in 1350 μl modified SIEM. All experiments have been carried out in triplicates. The strains Bacillus subtilis (DSM 32315), Bacillus subtilis DSM 32540, Bacillus licheniformis DSM 32314 and Bacillus amyloliquefaciens CECT 5940 were precultured separately in 50 ml LBKelly medium, for about 16 h. Incubation was done in shaking flasks at 37° C. under aerobic conditions. After incubation, bacterial density was determined by optical density measurement at 600 nm. A final stock solution of 1×10^10 cells/ml was prepared in 1 ml buffer solution (0.1 mM MES pH 6). The suspension of each strain was introduced into the i-screen to a final level of about 10^9 cells/ml, respectively
# The i-screen incubation was performed under following gas conditions: 0.2% O2, 0.2% CO2, 10% H2, 89.6% N2.
# The effect of the combination of different probiotic strains together with glutamine, or glutamine- or glutamic acid-containing dipeptides containing peptides on the n-butyrate production of the microbial community was analyzed for the strain B. subtilis (DSM 32315) as described in example 1 and 5. The single amino acids were added to a concentration of 3.5 mM and the dipeptides to a concentration of 7 mM.
# The effects of the combination of different probiotic strains together with glutamine, or glutamine- or glutamic acid-containing dipeptides containing peptides on the n-butyrate production of the microbial community were analyzed for the strains B. licheniformis (DSM 32314) and B. amyloliquefaciens (CECT 5940) as described in example 1, 5, and 10. The single amino acids were added to a concentration of 3.5 mM and the dipeptides to a concentration of 7 mM.
# [1] = microbiota + CECT 5940 (first group so headed, r13-r15)
# [2] = microbiota + CECT 5940 (second group so headed, r16-r18)
# [3] = in combination with B. amyloliquefaciens (CECT 5940)
# [4] = in combination with B. licheniformis (DSM 32314)
# [5] = in combination with B. subtilis (DSM 32315)
Structure (SMILES),other genera relative abundance (colonic human microbiota; [1]),other genera relative abundance (colonic human microbiota; [2]),other genera relative abundance (colonic human microbiota; microbiota + DSM 32315),"other genera relative abundance (colonic human microbiota; microbiota, no probiotic cells)","synergy on microbial community composition (higher increase of Clostridium XIVa, higher decrease of Clostridium XI than single additions) (colonic human microbiota; [3])","synergy on microbial community composition (higher increase of Clostridium XIVa, higher decrease of Clostridium XI than single additions) (colonic human microbiota; [4])","synergy on microbial community composition (higher increase of Clostridium XIVa, higher decrease of Clostridium XI than single additions) (colonic human microbiota; [5])",synergy on n-butyrate concentration (human gut microbiota; [4]),synergy on n-butyrate concentration (human gut microbiota; [5]),effect on the microbial community (colonic human microbiota),synergy on n-butyrate concentration (human gut microbiota; [3])
CC(=O)N[C@@H](C)C(=O)N[C@@H](CCC(N)=O)C(=O)O [Ac-Ala-Gln] (Ac-Ala-Gln-OH),78%,76%,67%,72%,,,,,,,
"C[C@H](N)C(=O)N[C@@H](CCC(N)=O)C(=O)O [Ala-Gln, Alanine-Glutamine] (H-Ala-Gln-OH)",90%,94%,96%,98%,synergistic effect,synergistic effect,synergistic effect,Synergistic positive effects,Synergistic positive effects,,
"NC(=O)CC[C@H](N)C(=O)O [Gln, glutamine, reference compound]",79%,70%,74%,72%,synergistic effect,,,,Synergistic positive effects,no positive effect on the microbial community,Synergistic positive effects
"N[C@@H](CCC(=O)O)C(=O)O [Glu, glutamic acid, reference compound]",73%,80%,72%,72%,,,,,Synergistic positive effects,no positive effect on the microbial community,
"NCC(=O)O.N[C@@H](CCC(=O)O)C(=O)O [Gly-Glu, Glycine-Glutamic acid]",91%,90%,92%,95%,synergistic effect,synergistic effect,synergistic effect,Synergistic positive effects,Synergistic positive effects,,
